# Data: patent US6489307B1, “Antisense compositions targeted to β1-adrenoceptor-specific mRNA and methods of use” (University of Florida, priority 1998, dated 2002)
# Where two headings read alike, the source gives them in different places.
# How the values were obtained:
# SHRs [1] = conditions: Zhang et al., 1999; without causing bradycardia; cited from earlier work
# SHRs [2] = assay: Telemetric monitoring of conscious SHRs during dobutamine infusion; format: in vivo, rat (SHR)
# Method: Two days after catherization of the jugular vein, control values were taken and 1 mg/kg β1-AS-ODN was injected. 48 hr later, rats were tested for the effect of β1-AS-ODN. The rats were allowed to recover until all the cardiovascular parameters returned to control values. […] For β1-stimulation, SHRs were infused with dobutamine (β1-selective agonist) through a jugular vein catheter at 5, 10, 20, and 40 μg·kg^−1·min.^−1. Each dose was given for 5 min. continuously and at 1-hr intervals until all the cardiovascular parameters returned to baseline values so as to avoid the effect of tachyphylaxis. BP and HR were sampled every 1 min. dP/dtmax was calculated from the slope of the rising pulse-pressure curve and determined every 1 min. The difference between values at each dose and baseline was denoted as Δ.
# Two days after catheterization of jugular vein, control values were taken and 1 mg/kg β1-AS-ODN was injected. Forty-eight hr later, rats were tested for the effect of β1-AS-ODN. The rats were allowed to recover until all the cardiovascular parameters returned to control values. […] For β1-stimulation, SHR were infused with dobutamine (β1-selective agonist) through jugular vein catheter at 5, 10, 20, 40 μg/kg/min. Each dose was given for 5 min continuously and at 1-hr intervals until all cardiovascular parameters returned to baseline so as to avoid the effect of tachyphylaxis. BP and HR were sampled every min. dP/dtmax was calculated from the slope of the rising pulse pressure curve and determined every min. The difference between values at each dose and baseline was denoted as Δ.
# β2-AR [3] = assay: β-AR density in myocardium after ischemia-reperfusion (binding assay); design: species or system Sprague-Dawley rats; conditions: rat, in vivo
# Method: Membrane protein was prepared from left ventricles as previously described (Baker and Pitha, 1982). For saturation studies, 100 μg membrane protein was incubated in triplicate with ^125I-(−)iodocyanopindolol (I-CYP, NEN Life Science, 6.25-100 pM) in a total volume of 250 μl containing 50 mM Tris-HCl (pH 7.4), 5 mM MgCl2 at 36° C. for 60 min. The nonspecific and β2-adrenoceptor binding were determined in the presence of 1 μM (±)-alprenolol and […] (RBI), respectively. Then the reaction mixture was passed through Whatman GF/B glass filter using Brandel harvester and the radioactivity was counted for one min.
# β2-AR [4] = assay: β-adrenergic receptor binding assay on renal cortex membranes; format: in vivo, rat (SHR); conditions: 0.5 mg/kg i.v.
# Method: Four days after intravenous injection of saline (n=6) or 0.5 mg/kg inverted ODN (n=6) or 4, 10, 18 and 40 days after injection of 0.5 mg/kg β1-AS-ODN (n=24), animals were euthanized, and membranes were prepared from the renal cortex of the left kidneys as previously described (Baker and Pitha, 1982). For saturation studies, 100 μg membrane protein was incubated in triplicate with 6 concentrations of [^125](−)iodocyanopindolol (ICYP, NEN Life Science, 6.25 to 100 pmol/L) in a total volume of 250 μL containing 50 mmol/L Tris-HCl (pH 7.4) and 5 mmol/L MgCl2 at 36° C. for 60 min. The nonspecific and β2-adrenergic receptor binding levels were determined in the presence of 1 μmol/L (±)-alprenolol and […] CGP20712A (RBI), respectively. Then the reaction mixture was passed through a Whatman GF/B glass fiber filter with a Brandel harvester, and the bound radioactivity was counted for 1 min.
# [5] = Tissue histology after repeated injections; format: in vivo, rat (SHR); conditions: three repeated injections, more than 2 months
# Excerpt: (§1) Safety profiles including liver transaminases, hematology, immune response and tissue pathology were investigated during three repeated injections of β1-AS-ODNs for extended periods of time.
# Heart, liver, spleen and kidney were subjected to pathological examination after three repeated injections of β1-AS-ODN for more than 2 months.
# [6] = Immune response (gel immunodiffusion, C-reactive protein); format: in vivo, rat (SHR); conditions: after repeated administration
# Excerpt: as §1
# C-reactive protein (CRP), a clinical index for immune reaction, was found negative in all animals.
# PRA = test system: PRA
# Method: PRA was determined with an angiotensin I (^125I) radioimmunoassay kit (DuPont). Plasma Ang II levels were measured by radioimmunoassay as previously described (Phillips and Kimura, 1988).
# SHRs [7] = format: in vivo, rat (SHR)
# Method: (§2) Each rat cage was placed on a receiver (RLA 1020, Data Sciences, St. Paul, Minn.) for measurement of cardiovascular parameters. Data were collected with a computer-based data acquisition program (Dataquest Lab-PRO3.0; Data Sciences). BP and HR were measured every 10 min. and averaged every 1 to 24 hrs. Before treatment, SHRs were monitored for a week to get a stable baseline.
# as §2, with “(RLA1020,” for “(RLA 1020,”, “Sciences)” for “Sciences, St. Paul, Minn.)”, “LabPRO3.0;” for “Lab-PRO3.0;”, “min” for “min.”, “hr.” for “hrs.”, “SHR” for “SHRs”
# β1-ARs = biological target: T1, β1-ARs (Rattus norvegicus, UniProt P18090); conditions: even after 18 days, single i.v. injection (Zhang et al., 1999); cited from earlier work
# T1 construct: membranes were prepared from heart ventricles as previously described; from tissue; host or cells: heart ventricles of SHR
# T1 sequence (P18090 whole entry): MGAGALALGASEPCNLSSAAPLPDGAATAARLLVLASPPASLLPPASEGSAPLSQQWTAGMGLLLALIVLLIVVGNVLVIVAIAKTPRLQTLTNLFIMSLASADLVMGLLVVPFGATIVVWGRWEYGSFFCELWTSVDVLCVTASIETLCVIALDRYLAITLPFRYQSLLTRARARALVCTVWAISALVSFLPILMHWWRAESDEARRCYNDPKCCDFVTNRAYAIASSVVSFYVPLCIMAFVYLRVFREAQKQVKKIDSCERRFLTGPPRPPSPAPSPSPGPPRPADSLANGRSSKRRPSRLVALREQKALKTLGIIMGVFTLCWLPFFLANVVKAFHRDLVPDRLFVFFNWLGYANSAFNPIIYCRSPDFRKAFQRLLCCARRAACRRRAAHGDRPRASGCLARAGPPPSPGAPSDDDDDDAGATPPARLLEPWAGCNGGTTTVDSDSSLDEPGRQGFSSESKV
# plasma Ang II = assay: Plasma Ang II radioimmunoassay; format: in vivo, rat (SHR)
substance,measurement,setting,value
"5′-CCGCGCCCATGCCGA-3′ (phosphorothioate backbone, further chemistry not given here) [β1-AS-ODN, 15-mer antisense ODN targeted to the AUG start codon of rat β1-AR mRNA]",maximum drop in blood pressure,SHRs [1],38 mmHg
same,basal (resting) HR,"SHRs [2]; 1 mg/kg, control 365±8",365±12 bpm
same,basal dP/dtmax,"SHRs [2]; 1 mg/kg, control 2937±277",2922±249 mm Hg/s
same,resting dP/dtmax,"SHRs [2]; 1 mg/kg, control 2937±277",2922±249 mmHg/sec
same,change in HR in the face of dobutamine,SHRs [2]; 48 hr after 1 mg/kg,not significantly reduced
same,increase in dP/dtmax in the face of dobutamine,SHRs [2]; 48 hr after 1 mg/kg,significantly (P<0.02) dampened
same,β2-AR density in ischemic-reperfused myocardium,β2-AR [3],no change
same,β2-AR level in renal cortex,β2-AR [4],not affected
same,"pathological examination of heart, liver, spleen and kidney",[5],No immunopathology or organ damage
same,C-Reactive Protein,[6],negative
same,Antibody to ODN,[6]; gel immunodiffusion,no detectable antibody
same,PRA,PRA; day 4,not on day 4
same,PRA,PRA; day 10 and day 18,significantly decreased
same,time after injection until decrease in PRA and Ang II occurred,PRA; single injection,≈ 10 days
same,duration of antihypertensive effect,"SHRs [7]; 1 mg/kg, liposomes 1:0.5",8 days
same,maximum drop in mean BP,"SHRs [7]; 1 mg/kg, liposomes 1:0.5",15 mm Hg
same,reflex tachycardia,"SHRs [7]; rat, in vivo",no reflex tachycardia
same,decrease in ventricular β1-AR density,β1-ARs,30-50%
same,plasma Ang II levels,plasma Ang II; day 4,not on day 4
same,plasma Ang II levels,plasma Ang II; day 10 and day 18,significantly decreased
